Assay results as given in US7531505B2, “Compositions and methods for promoting attachment of cells of endothelial cell lineage to medical devices” (Affinergy, Inc., priority 2006, dated 2009).
Read-outs that look alike come from different tables or passages of the source.

What was measured:
[1] = test system: human coronary endothelial cells, porcine coronary endothelial cells, and endothelial progenitor cells; assay: FACS binding of biotin-tagged peptides to cells of endothelial cell lineage in whole blood; format: cell-based, human or Porcine
Method: Several of the endothelial-binding domains listed in Table 3 with desirable binding specificities (e.g., SEQ ID NOs: 9-18, 23-28, 30-32, and 35) were further characterized for binding to various cell types in whole blood by FACS, by synthesizing the peptides with a C-terminal biotin tag. Cells were harvested from cell culture flasks using trypsin/EDTA. The cells were neutralized with complete (serum-containing) media and allowed to recover at 37° C. for at least 20 minutes. Each cell type was labeled with its corresponding antibody, as set forth in Table 4, below, and incubated for 20 minutes at room temperature.
The antibody-labeled cells were rinsed twice by centrifugation using washing buffer (HBSS+1% BSA+0.1% sodium azide, sterile-filtered). One hundred (100) μL of whole blood was aliquotted into each well of a deep-well polypropylene plate. Peptides were added to each well to achieve the desired peptide concentration. Minimal volumes of cells (typically 10 μL of cells or approximately 50,000 cells) were added to each well. […] The samples were transferred to an analysis plate and analyzed for cell binding using FACS. In the analysis, controls for each cell type (with relevant antibody as per Table 4, but containing no peptide) were used to assess background fluorescence. […]

[2] = test system: cells of endothelial cell lineage; assay: Additional assays characterizing binding specificity of endothelial-binding domains (EC50); format: cell-based; conditions: read-out: EC50 of endothelial-binding domain
Description: In some embodiments, a binding domain that binds specifically to a particular surface, material or composition binds at least 10%, 20%, 30%, 40%, 50%, 60%, 70%, 80%, 90%, 100%, 200%, 300%, 400%, 500%, or a higher percentage, than the binding domain binds to an appropriate control such as, for example, a different material or surface, or a protein typically used for such comparisons such as bovine serum albumin. For example, binding specificity can determined by an assay in which quantitated is a signal (e.g., fluorescence, or colorimetric) representing the relative amount of binding between a peptide and target cells, as compared to peptide and non-target cells. […] In a preferred embodiment, the binding domain has binding specificity that is additionally characterized by an EC50 of 10 μM or less, and more preferably less than 1 μM. The EC50 can be determined using any number of methods known in the art, such as by generating a concentration response curve from a binding assay in which the concentration of the peptide is titered with a known amount of material or cells for which the peptide has binding specificity (see, for example, methods described in Examples 2 and 3 herein). In such case, the EC50 represents the concentration of peptide producing 50% of the maximal binding observed for that peptide in the assay. […]

[3] = ELISA of relative binding strength of biotin-tagged peptides to stainless steel stents
Method: As a specific illustrative example, nonspecific binding sites in wells containing stainless steel stent material in polystyrene microtiter plates were blocked with a buffer containing 1% bovine serum albumin for 2 hours at room temperature. The wells and stainless steel stent material were then washed three times with PBS-T. The plate was incubated for 1 hour at room temperature with shaking at 50 rpm. Each of 17 different phage display libraries was diluted in PBS+1% BSA and was added at a concentration of 10^10 pfu/ml in a total volume of 250 μl. After a 1 hour incubation at room temperature with shaking at 50 rpm, 70 μl of bovine serum was added, and then the plates were incubated at 37° C. with shaking for 1 hour. Unbound phage were removed by washing 3 time with 300 μl of PBS-T. After the final wash, phage bound to stents were used to infect E. coli cells. The infected cells were incubated in 96 deep-well plates, containing 1 ml of growth medium (e.g., 2xYT+5 μg/ml tetracycline) per well, at 37° C. overnight with shaking. Amplified phage-containing supernatant from each well was harvested by centrifugation. Second, third, and fourth rounds of selection were performed in a similar manner to that of the first round, using 150 μl of amplified phage supernatant from the previous round as input, and diluted with 150 μl of PBS-T+1% BSA. From the fourth round of selection, 340 individual clonal phage were then isolated and tested by plating out dilutions of phage pools to obtain single plaques. To detect phage that specifically bound to a metal such as stainless steel, conventional ELISAs were performed using an anti-M13 phage antibody conjugated to horseradish-peroxidase, followed by the addition of chromogenic agent ABTS (2,2′-azinobis(3-ethylbenzthiazoline-6-sulfonic acid). Relative binding strengths of the phage were determined by testing serial dilutions of the phage for binding to stainless steel in an ELISA, using an anti-M13 phage antibody conjugated to horseradish-peroxidase, followed by the addition of chromogenic agent ABTS, and measuring the absorbance at 405 nm. In the ELISA for determining relative binding strengths, the phage titrations were done in either buffer alone, or buffer containing 20% whole blood. The DNA sequence encoding peptides that specifically bound a metallic surface was determined.
Therefore, to determine if the binding specificity for stainless steel is primarily due to the amino acids in the C-terminal half of the amino acid sequence, or if the N-terminal region also impacts binding, peptides consisting essentially of amino acid sequences illustrated as SEQ ID NO:3 and SEQ ID NO:4 were synthesized. The peptides, as listed in Table 2 as SEQ ID NOs: 1, 3, and 4 were each synthesized with a biotin tag, and then assayed for relative binding strengths by ELISA using similar methods as that used for determining the relative binding strengths of phage displaying the peptides (as previously described herein). In this assay, serial dilutions (ranging from 0 μM to 10 μM) of each of the peptides were incubated with the stainless steel stents, washed with PBS-T, and relative binding specificity was quantitated by detecting the colorometric signal resulting from the reaction of streptavidin-alkaline phosphatase (the streptavidin portion binding to the biotin-labeled peptides) with chromogenic substrate. The EC50 was determined from the titration curve. […]

[4] = ELISA of relative binding strength in buffers from pH 2 to pH 12; conditions: peptide 1 μM, buffers pH 2 to pH 12
Method: For determining the effect of pH on binding specificity, the assay for determining relative binding strengths (by ELISA) was performed in the presence of different buffers, varying in pH in a range of from pH 2 to pH 12. For example, a buffer containing glycine and water was adjusted to pH2 using HCl; an acetate buffer was adjusted to pH 4.0 (ionic strength of about 0.001 M); a phosphate buffer (NaH2PO4) was adjusted to pH 6.0 (ionic strength of about 0.012M); a phosphate buffer (NaH2PO4) was adjusted to pH 7.0 (ionic strength of about 0.019M); a tris buffer was adjusted to pH 8.0 (ionic strength of about 0.006M); an ethanolamine buffer was adjusted to pH 10.0 (ionic strength of about 0.003M); and a phosphate buffer (NaH2PO4) was adjusted to pH 12.0 (ionic strength of about 0.044M). The final concentration of each peptide in this assay was 1 μM. Tested in this assay were surface-binding domains comprising a peptide consisting essentially of the amino acid sequence illustrated as SEQ ID NO:3, and the multimers thereof (divalent version (SEQ ID NO:7) and tetravalent version (SEQ ID NO:8)).

endothelial cells = assay: Adherence of endothelial cells to coated stainless steel disks (luminescent ATP read-out); format: cell-based; conditions: coating at 10 μM for 1 hour; 25,000 endothelial cells, 10% bovine serum, 15 minutes; controls uncoated, SEQ ID NO:3 or irrelevant peptide
Method: The biofunctional coating composition comprising an amino acid sequence illustrated as SEQ ID NO:47 was then tested for its ability to selectively adhere cells of endothelial cell lineage to a metallic surface of a medical device. In this example, stainless steel disks were used to represent a metallic surface of a medical device. The disks were contacted with a buffered solution containing the biofunctional coating composition at a concentration of 10 μM for 1 hour at room temperature. As controls for non-specific binding, disks were either uncoated, or coated with the surface-binding domain comprising a peptide consisting essentially of an amino acid sequence of SEQ ID NO:3, or an irrelevant peptide (having no known binding specificity for metal or stainless steel or endothelial cells). The disks were washed with PBS, and then 25,000 endothelial cells were added in cell media containing 10% bovine serum, and incubated at room temperature for 15 minutes. The disks were washed in PBS, and the cells were then quantitated using a commercial luminescent cell viability assay system that measures intracellular ATP using a luminescent read-out. The luminescence was detected using a plate reader.

[5] = biotin-tagged peptide, serial dilutions 0 μM to 10 μM, stainless steel stents, read-out: EC50 expressed in nanomoles

## AGSSSSVSFVAAAGSAV [SEQ ID NO:14]
[1]
  binding preference between endothelial progenitor cells and endothelial cells: prefer binding to endothelial progenitor cells as compared to endothelial cells

## FYGEVGYVGASLYAGGAS [SEQ ID NO:19]
[2]
  EC50: < 10000 nM

## NHTISKNHKKKNKNSNKTR [SEQ ID NO:4]
[3]; [5]
  EC50: < 250 nM

## SEQ ID NO:7 (SSHRTNHKKNNPKKKNKTRGSSHRTNHKKNNPKKKNKTRG)
[4]
  optimum pH for binding: 7.0 pH

## SGVVDAGVVAEDGVSGEASRSSHRTNHKKNNPKKKNKTR [SEQ ID NO:1]
[3]; [5]
  EC50: < 250 nM

## SSFYGEVGYVGASLYAGGASSRG-PEG-SSHRTNHKKNNPKKKNKTRG [SEQ ID NO:47]
Endothelial cells
  number of endothelial cells bound to coated stainless steel disks compared with controls: several fold increase

## SSHRTNHKKNNPKKKNKTR [SEQ ID NO:3]
[3]; [5]
  EC50: < 50 nM
[3]; ethylene oxide 642 mg/L for 2 hours, compared with unsterilized peptide
  effect of ethylene oxide sterilization on relative binding specificity for stainless steel: minimal to no effect
[3]; peptide subjected to ethylene oxide sterilization (642 mg/L for 2 hours), read-out: EC50 for binding to stainless steel after ethylene oxide sterilization
  EC50: < 50 nM
[4]
  optimum pH for binding: 7.0 pH

## VVFAASGVAADAGWSVS [SEQ ID NO:32]
[1]
  binding preference between endothelial progenitor cells and endothelial cells: preference for binding endothelial cells
